We go through 27 compounds from patent publication EP0857721A1, “ACRIDONE COMPOUNDS” (Eisai Co., Ltd., priority 1995, dated 1997).

Structures are written as SMILES. Like-named read-outs stand apart in the source and are kept apart here.

One experiment concerns RBL-2H3 cells. In words: Inhibition of serotonin liberation from IgE-sensitized, antigen-stimulated RBL-2H3 cells ([3H]-serotonin). The experiment is classed as cell-based. The settings on record: Rattus norvegicus; IgE-sensitized RBL-2H3 cells stimulated with specific antigen; [3H]-labeled serotonin. The text has this: Under the action of an antigen specific to the IgE antibody, RBL-2H3 cells, i.e., a cell line originating in rat cells, not only liberate histamine and serotonin but also produce and liberate cytokines such as TNF" serving as an inflammatory mediator and prostaglandins. In this experimental system, the effects of the compounds of the present invention of inhibiting the liberation of various mediators were examined by using serotonin as an indication.
The cells were labeled with [^3H]-labeled serotonin and, at the same time, sensitized with the IgE antibody. Next, these cells were incubated in the presence of the acridone compounds according to the present invention and then stimulated with the specific antigen. Then the serotonin liberation inhibitory activity of each acridone compound was calculated from the amount of the [^3H]-labeled serotonin thus liberated into the medium due to the above-mentioned stimulation and the amount of the [^3H]-labeled serotonin liberated into the medium by the same experimental procedure as the one described above but adding no acridone compound of the present invention.

The test system of the next experiment is human basophils. Description: Inhibition of mediator (histamine, peptide leukotriene) liberation from human basophils stimulated with tick antigen. The conditions noted are these: leukocyte fraction containing basophils, enzyme immunoassay. It counts as cell-based. The procedure: To 20 ml of heparinized blood was added 6 ml of 6% dextran (for separating leukocytes, high molecular weight). The obtained mixture was thoroughly stirred and then allowed to stand at 37°C for 30 minutes to thereby sediment erythrocytes. The upper layer was taken out and phosphate-buffered saline was added thereto. The obtained mixture was centrifuged at 185 G for eight minutes to thereby give a crude leukocyte fraction. These cells (leukocyte fraction) were subjected to hypotonic hemolysis and then suspended in D-PBS(+) containing 0.1% of BSA. The cell suspension thus prepared was used in the subsequent experiment as the leukocyte fraction containing basophils.
To 0.4 ml of this cell suspension preliminarily heated at 37°C for 5 minutes was added 0.05 ml of a solution containing each acridone compound of the present invention. The obtained mixture was then allowed to stand at 37°C for 15 minutes so that the cells were pre-treated. Next, 0.05 ml of a tick antigen solution was added thereto to thereby induce an antigen-antibody reaction. Ten minutes thereafter, the antigen-antibody reaction was ceased by ice-cooling. After ceasing the reaction, the mixture was centrifuged at 185 G for ten minutes. The supernatant was taken out and the contents of histamine and a peptide leukotriene therein were determined by using each an enzyme immunoassay kit. Based on the data thus obtained, the activities of the compound of inhibiting the liberation of histamine and peptide leukotriene were determined.

For experiment [1], the target named is T1, tyrosine kinase of 72 kDa (Rattus norvegicus, UniProt Q64725).
T1 construct: the tyrosine kinase of 72 kDa contained in the lysate or cytosol thus prepared; endogenous in cells; host or cells: RBL-2H3 cells (NP-40 lysate or cytosol fraction)
In words: Inhibition of phosphorylation (activation) of the 72 kDa tyrosine kinase induced by phosphorylated TAM peptide of IgE receptor γ-chain, western blotting. It counts as biochemical. The conditions noted are these: Compd. concentration 10 μM; RBL-2H3 lysate or cytosol, TAM peptide 10 µM, ATP 50 µM; tyrosine kinase phosphorylation inhibitory ratio; read-out: Inhibitory potency. The text has this: In this experiment, use was made of RBL-2H3 cells, i.e., a cell line which is generally employed in the studies on the informational transmission system in IgE receptors of mast cells or basophils and a peptide in the tyrosine activation motif (TAM) region containing phosphorylated tyrosine in a human IgE receptor γ chain synthesized by Peputido Kenkyusho K.K..
In this experiment, use was made of a lysate which had been obtained by solubilizing 1 × 10^7 to 5 × 10^7 cells with the use of a solution containing various proteases and NP-40 employed as a solubilizer at a concentration of 1% and a supernatant (as the cytosol fraction of the cells) which had been obtained by disrupting the cells with Down's homogenizer and centrifuging the obtained mixture at 50,000 rpm for 1 hour. The concentrations of the lysate and cytosol of the cells were each adjusted to 1 mg protein/ml with the use of an isotonic buffer. […]
The extent of the activation of this tyrosine kinase was determined by confirming the extent of the phosphorylation of the tyrosine moiety in the tyrosine kinase per se by western blotting with the use of an anti-tyrosine phosphorylation antibody and then numerically expressing the obtained data with an image analyzer. Based on the extent of the phosphorylation thus obtained, the tyrosine kinase phosphorylation inhibitory ratio of the compound 101 was determined.
For orientation: In western blotting, separated proteins are transferred to a membrane and probed.

Where [2] appears, read: histamine, read-out: IC50 (µM) in mediator liberation from human basophils histamine.
Setting [3] is: peptide leukotriene, read-out: IC50 (µM) in mediator liberation from human basophils leukotriene.

T1 sequence (Q64725 whole entry): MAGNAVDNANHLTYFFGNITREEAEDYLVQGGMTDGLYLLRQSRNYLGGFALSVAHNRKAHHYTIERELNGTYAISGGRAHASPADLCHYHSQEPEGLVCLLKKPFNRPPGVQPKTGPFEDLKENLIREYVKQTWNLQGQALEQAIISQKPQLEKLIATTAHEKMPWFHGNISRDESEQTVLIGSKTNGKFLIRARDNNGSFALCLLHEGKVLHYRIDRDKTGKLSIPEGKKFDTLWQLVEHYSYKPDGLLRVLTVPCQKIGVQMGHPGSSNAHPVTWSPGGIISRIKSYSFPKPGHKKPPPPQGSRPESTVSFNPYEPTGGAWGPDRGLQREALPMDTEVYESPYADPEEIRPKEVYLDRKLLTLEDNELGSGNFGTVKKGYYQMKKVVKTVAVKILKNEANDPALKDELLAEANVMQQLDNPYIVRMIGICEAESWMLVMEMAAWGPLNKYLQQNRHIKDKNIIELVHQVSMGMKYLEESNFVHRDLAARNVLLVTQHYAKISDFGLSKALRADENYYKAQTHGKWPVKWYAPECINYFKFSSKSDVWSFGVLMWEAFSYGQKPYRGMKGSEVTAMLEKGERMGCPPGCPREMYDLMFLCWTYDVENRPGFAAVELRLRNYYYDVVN

For `COc1c(CNCCCn2c3cccc(CC(=O)O)c3c(=O)c3ccc(C)c(C)c32)ccc(Cl)c1Cl` [Compound 28], the IC50 in the experiment with RBL-2H3 cells stood at 1 µM; in the experiment with human basophils (setting [2]), 10 µM; with human basophils (setting [3]), 3 µM.

`CNC(=O)Cc1cccc2c1c(=O)c1ccc(C)c(C)c1n2CCCN(C)Cc1ccccc1` [Compound 135]: the results for the IC50 in the experiment on RBL-2H3 cells and in the experiment on human basophils (setting [3]) were 2 µM and 10 to 30 µM, respectively.

`Cc1ccc2c(=O)c3ccccc3n(CCCNCc3ccccc3O)c2c1C` [Compound 39]: the IC50 turned out to be 1 µM in the experiment on RBL-2H3 cells, 10 µM with human basophils (setting [2]) and 3 µM in the experiment with human basophils (setting [3]).

For the compound `Cc1ccc2c(=O)c3c(CC(=O)O)cccc3n(CCCNCc3ccc(Cl)cc3Cl)c2c1C` [Compound 13], the IC50 is 0.2 µM with RBL-2H3 cells, 10 to 30 µM in the experiment with human basophils (setting [2]) and 3 to 10 µM in the experiment on human basophils (setting [3]).

Take `Cc1ccc2c(=O)c3c(C(C)C(=O)O)cccc3n(CCCNCc3ccccc3)c2c1C` (stereo not drawn) [Compound 141]: the IC50 in the experiment with RBL-2H3 cells is 1 µM; in the experiment with human basophils (setting [2]) it was 30 to 100 µM; in the experiment with human basophils (setting [3]) it was 3 to 10 µM.

For the compound `Cc1ccc2c(=O)c3c(CC(=O)O)cccc3n(CCCNCc3ccccc3)c2c1C` [Compound 1], the figures for the IC50 in the experiment on RBL-2H3 cells, in the experiment on human basophils (setting [2]) and in the experiment on human basophils (setting [3]) were 3 µM, 30 µM and 30 to 100 µM, respectively.

In the case of `Cc1ccc2c(=O)c3c(CC(=O)O)cccc3n(CCCNCc3ccccc3F)c2c1C` [Compound 107], in the experiment with RBL-2H3 cells, the IC50 is 6 µM.

`Cc1ccc2c(=O)c3c(CC(=O)O)cccc3n(CCCN)c2c1C` [Compound 14]: in the experiment with RBL-2H3 cells, the IC50 turned out to be 10 µM.

As for `Cc1cccc(CNCCCn2c3ccccc3c(=O)c3ccc(C)c(C)c32)c1` [Compound 33], in the experiment on RBL-2H3 cells, the IC50 worked out at 2 µM.

`Cc1ccccc1CNCCCn1c2ccccc2c(=O)c2ccc(C)c(C)c21` [Compound 32]: the IC50 with RBL-2H3 cells is 1 µM.

Take `Cc1ccc(CNCCCn2c3cc(F)ccc3c(=O)c3ccc(C)c(C)c32)cc1` [Compound 86]: the IC50 with RBL-2H3 cells amounted to 3 µM.

Turning to `Cc1ccc2c(=O)c3ccccc3n(Cc3ccccc3CN)c2c1C` [Compound 117], the IC50 in the experiment on RBL-2H3 cells stood at 10 µM.

`Cc1ccc2c(=O)c3c(C(C)C(=O)O)cccc3n(CCCNCc3ccc(Cl)cc3Cl)c2c1C` (stereo not drawn) [Compound 143]: the IC50 in the experiment on RBL-2H3 cells turned out to be 1 µM; in the experiment on human basophils (setting [2]) it was 30 µM; with human basophils (setting [3]) it was 10 µM.

With `Cc1ccc2c(=O)c3ccccc3n(CCCNCc3ccc(C(N)=O)cc3)c2c1C` [Compound 55], the IC50 in the experiment on RBL-2H3 cells worked out at 10 µM.

Turning to `Cc1ccc(CN(C)CCCn2c3cccc(CC(=O)O)c3c(=O)c3ccc(C)c(C)c32)cc1` [Compound 95], the IC50 in the experiment with RBL-2H3 cells came out at 10 µM.

As for `COc1ccc2c(=O)c3ccc(C)c(C)c3n(CCCNCc3ccc(C)cc3)c2c1` [Compound 87], the IC50 in the experiment with RBL-2H3 cells amounted to 2 µM.

Regarding `Cc1ccc2c(=O)c3c(CC(=O)O)cccc3n(CCCNCc3ccc(F)cc3)c2c1C` [Compound 104], the IC50 with RBL-2H3 cells was 5 µM.

As to `Cc1ccc2c(=O)c3ccccc3n(CCCNCc3ccc(Br)cc3)c2c1C` [Compound 66], the IC50 in the experiment with RBL-2H3 cells is 5 µM.

On to `Cc1ccc(CNCCCn2c3ccccc3c(=O)c3ccc(C)c(C)c32)cc1` [Compound 62], for which, in the experiment with RBL-2H3 cells, the IC50 worked out at 1 µM.

As to `Cc1ccc2c(=O)c3c(CC(=O)O)cccc3n(CCCNCc3ccc(O)cc3)c2c1C` [Compound 31], in the experiment on RBL-2H3 cells, the IC50 turned out to be 1 µM.

Consider `COc1ccc(CNCCCn2c3cccc(CC(=O)O)c3c(=O)c3ccc(C)c(C)c32)c(OC)c1` [Compound 99], for which the IC50 with RBL-2H3 cells turned out to be 10 µM.

`Cc1ccc(CN(C)CCCn2c3cccc(CC(=O)O)c3c(=O)c3ccc(C)c(C)c32)c(C)c1` [Compound 27]: the IC50 in the experiment on RBL-2H3 cells was 10 µM.

In the case of `Cc1ccc2c(=O)c3c(CC(=O)O)cccc3n(CCCN(C)Cc3cccc4ccccc34)c2c1C` [Compound 97], in the experiment on RBL-2H3 cells, the IC50 was 10 µM.

With `Cc1ccc2c(=O)c3c(CC(=O)N(C)C)cccc3n(CCCN(C)Cc3ccccc3)c2c1C` [Compound 136], the IC50 in the experiment on RBL-2H3 cells turned out to be 10 µM.

In the case of `Cc1ccc2c(=O)c3c(CC(=O)O)cccc3n(CCCNCc3ccc(F)c(F)c3)c2c1C` [Compound 103], the IC50 in the experiment on RBL-2H3 cells was 3 µM.

`Cc1ccc2c(=O)c3c(CC(=O)O)cccc3n(CCCN(C)Cc3ccccc3)c2c1C` [Compound 101]: the IC50 in the experiment with RBL-2H3 cells was 3 µM; in the experiment with human basophils (setting [3]), 10 to 30 µM. Also, the inhibition at 10 µM in experiment [1] was found to be 70%.

Take `Cc1ccc2c(=O)c3c(CC(=O)O)cccc3n(CCCN(C)Cc3ccc(Cl)c(O)c3Cl)c2c1C` [Compound 25]: the IC50 in the experiment with RBL-2H3 cells came to 6 µM.
